SMILES strings stand for the structures.

From paper PMC11481179, “Development and Application of Reversible and Irreversible Covalent Probes for Human and Mouse Cathepsin‐K Activity Detection, Revealing Nuclear Activity” (Advanced Science, 2024) come the findings set out here.

One test has as its target CTSB (Homo sapiens, UniProt P07858). Description: In vitro kinetic evaluation of cathepsin inhibition, fluorescent substrate Z-FR-AMC. In kind it is biochemical. The conditions noted are these: for mode of inhibition: CTSB; for Ki: CTSB 5 nM, pH 6, 37 °C. The method, then: used for TLC. Phosphate Buffer Saline (PBS) was purchased from Biological Industries (pH = […]
7.4) and was used as a buffer system in all experiments if not indicated otherwise. […]
Recombinant human CTSB, CTSK, CTSL, and CTSS were supplied by B. Turk (J. […]
In vitro kinetic evaluation of labeling recombinant cathepsins:
Reactions were monitored for 30 min at 37° C in 96-well black flat-bottom microplates […]
(Greiner, Germany) using Tecan INFINITE M1000 pro plate reader (Tecan, Switzerland), […]
substrates Z-RR-AMC (CTSL) or Z-FR-AMC (CTSS, CTSB and CTSK), and excitation and […]
emission wavelengths of 370 and 460 nm, respectively. Cathepsin concentrations in the assay were 0.4 nM (CTSK) or 5 nM (CTSS, CTSB, and CTSL). The buffer was 100 mM Na2HPO4/NaH2PO4, 50 mM NaCl, 5 mM DTT, 0,1% Peg-6000, pH 6. For irreversible inhibitors, reaction data were fitted to the one-phase association formula in GraphPad Prism 9 software: Y=Y0 + (Plateau-Y0)*(1-exp(-K*X)) where in this case Y0 and Y represent fluorescence signal at times 0 and t, respectively, K represent the observed reaction rate kobs and X the inhibitor concentration. Inactivation rates at each inhibitor concentration were obtained by subtracting the inactivation observed in the control sample: kobs – kctrl. The maximal rate of inactivation (kinact) was obtained as the asymptote from equation Y = kinact*X/(Kiapp + X) where X is inhibitor concentration, Y is the observed inactivation rate for each X, and Kiapp is the apparent inhibition constant. Ki values were calculated from IC50 or from Kiapp using formulas Ki = Kiapp / (1 + Km/S) and IC50 = E0/2 + Kiapp, where Km stands for Michalis-Menten constant, S for substrate concentration and E0 for cathepsin concentration.
The highest inhibitor concentrations in the assay were 50 µM. Measurements were performed in several independent duplicates. Average values are presented with standard deviations. […]
µM) were pretreated with different concentrations of probes (GD32, GD36, GD37, or GD42)

Test [1] deals with T1, endogenous CTSK in intact U-2 OS cells (Homo sapiens, UniProt P43235).
T1 construct: ability to label endogenous CTSK activity in intact cells; endogenous in cells; host or cells: U-2 OS
T1 sequence (P43235 115-329): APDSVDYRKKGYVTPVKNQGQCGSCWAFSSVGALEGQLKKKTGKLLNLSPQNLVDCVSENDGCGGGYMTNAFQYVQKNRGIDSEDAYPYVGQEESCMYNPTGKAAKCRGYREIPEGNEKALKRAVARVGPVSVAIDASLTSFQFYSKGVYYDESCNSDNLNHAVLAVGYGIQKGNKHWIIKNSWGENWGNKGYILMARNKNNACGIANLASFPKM
Description: Labeling of endogenous CTSK in intact cells, fluorescent SDS-PAGE. In kind it is cell-based. The method, then:
To test probe selectivity and the ability to label endogenous CTSK activity in intact cells, three cell lines were selected: human osteosarcoma MG‐63 and U‐2 OS, and human glioblastoma U‐87 MG; all cell lines express CTSK along with other lysosomal cathepsins.^[ [44] ^] First, the ABPs were incubated with intact U‐2 OS cells for different durations of time, and the probe selectivity toward CTSK was examined, with a pan cathepsin ABP, GB123, used as a control that labels CTS B, K, L, and S in cells. After cell lysis, the probe‐labeled enzymes were resolved and detected by a fluorescent scan of the SDS‐PAGE. […] Specifically, intact MG‐63 cells required a 5 h incubation (Figure 2b,c), while U‐87 MG cells required a 2 h incubation (Figure 2d).
Figure 2 Labeling of endogenous CTSK in intact cells. a) U2‐OS cells were treated with DMSO or 5 µM of the indicated inhibitors in culture medium, for 2 h, then with indicated ABPs [5 µM] in a culture medium for indicated times, followed by cell lysis, SDS‐PAGE separation, and fluorescent scanning of the gel at 635/670 nm. An immunoblot of CTSK of the same gel is presented below. b) Intact MG63 cells were treated with GD32 5 µM in the culture media for indicated times, cell lysates were analyzed as in a. CTSK immunoblot is presented, pro and mature CTSK are indicated by arrows. c) MG63 cells and d) U87MG cells were treated with DMSO, or 5 µM of indicated inhibitors in culture medium for 2 h, followed by incubation with 5 µM of indicated probes for 5 h (GD32 and GD42) and 2 h (GB123), cell lysates were analyzed by fluorescent SDS PAGE as in a. […] In (c) a CTSK immunoblot of a representative MG63 lane on the right. e) Labeling of active mature CTSK by GD32 in A549 and U2‐0S cells in externally adjusted different pH. Cells were incubated with 5 µM GD32 for 24 h in growth media at indicated pHs, prior to the cell lysis, cell lysates were analysed as in a. CTSK immunoblot below. f) A549 cells were incubated with increasing concentrations of GD30 for 2 h at pH = 5, followed by the incubation with 5 µM GD32 for 24 h prior to the cell lysis, cell lysates were analyzed as in a. g) Intact U‐87 MG cells or U‐87 MG cell lysates were treated with 5 µM GD32 for 2 h, the intact cells were then lysed and all lysates were analyzed as in (a). h) Intact or lysates of U‐87MG were treated with GD32 for 2 h then immunoprecipitation was done with an anti‐CTSK antibody. Input (I), immunoprecipitation (IP), and output (O) were separated by a 14% SDS‐PAGE and scanned for fluorescence. The gel was then blotted and reacted with an anti‐cystatin B antibody below. ODN (Odanacatib), GB111 (GB111‐NH2), mCTSK (mature CTSK). […]
deoxycholate). After adding sample buffer, samples were boiled for 10 minutes, and analyzed […]
lysates were analyzed as described above. […]

On to `CC(C)C[C@H](N[C@@H](c1ccc(-c2ccc(S(=O)(=O)CCNC(=O)CCCCC[N+]3=C(/C=C/C=C/C=C4/N(C)c5ccc(S(=O)(=O)O)cc5C4(C)C)C(C)(C)c4cc(S(=O)(=O)O)ccc43)cc2)cc1)C(F)(F)F)C(=O)NC1(C#N)CC1` [GD37], for which, at CTSB, the mode of inhibition result was “Reversible” and the affinity corresponds to a Ki of 5.9 µM.
In the case of `C#CCNC(=O)[C@H](CC(C)C)N[C@@H](c1ccc(-c2ccc(S(=O)(=O)CCNC(=O)OC(C)(C)C)cc2)cc1)C(F)(F)F` [GD30], the “effect of inhibitor preincubation on GD32-labeled CTSK band” value in test [1] (inhibitor 5 µM, 2 h, then GD32 5 µM) was “depletion of the CTSK‐specific band”.
As to `C#CCNC(=O)[C@H](CC(C)C)N[C@@H](c1ccc(-c2ccc(S(=O)(=O)CCNC(=O)CCCCC[N+]3=C(/C=C/C=C/C=C4/N(C)c5ccc(S(=O)(=O)O)cc5C4(C)C)C(C)(C)c4cc(S(=O)(=O)O)ccc43)cc2)cc1)C(F)(F)F` [GD32], on CTSB, the mode of inhibition entry was “Reversible” and the Ki came out at 9.4 µM. Also, the “CTSK specificity of labeling” value in test [1] (probe 5 µM, incubation up to 24 h) is “retained its CTSK specificity up to 24 h”.
